Assay results as given in patent US20060111284A1, “Method for treating cancer” (priority 2002, published 2006).

How the values were obtained:
[1] = tested on: cells; experiment: Chemosensitizing by redox clamping agent co-administered with anti-cancer agent (FIG. 2); type: cell-based
Text: The present invention further provides a method of reducing the effective dose of an anti-cancer agent necessary to be effective against cancer comprising administering a redox clamping agent in conjunction with an anti-cancer agent. It is preferred that the redox clamping agent is Mesna or DMSA. Redox clamping agents have the ability to maintain cells in a selected redox state. […] Redox clamping agents are useful in enhancing the therapeutic activity of chemotherapeutic agents such as butyrate that are dependent upon the redox state of the cell. Redox clamping agents are further useful in controlling hyperproliferation of cells and conditions associated with abnormal fluctuations in the redox state of cells. In one aspect, this invention provides a method of treating cancerous tumors comprising administering an effective dose of an anti-cancer agent in conjunction with a redox clamping agent, wherein the redox clamping agent acts as a chemoenhancer or a chemosensitizer. […] The administration of Mesna in conjunction with an anti-cancer agent may be as separate compounds or in a composition formulated and titrated to a dose and in a concentration that would achieve the optimal therapeutic dose of the anti-cancer agent providing a higher tumor cell kill with a lower dose of the anti-cancer agent than the typical therapeutic dose administered to a patient. […]

[2] = tested on: H4 Rat Hepatoma cells; experiment: Hydrogen peroxide stress in H4 Rat Hepatoma cells, antioxidant levels; type: cell-based; conditions: 100 uM hydrogen peroxide for two hours, medium replaced, determined after 24 hours
Description: To further exemplify the redox clamping properties of Mesna, stress was induced in H4 Rat Hepatoma cells by treatment with 100 uM hydrogen peroxide for two hours and then the medium was removed and replaced with an anti-cancer agent. The cellular viability, as well as glutathione and metallothionein levels were determined after 24 hours in culture. […] The inhibition of stress induced upswing in antioxidant levels is characteristic of redox clamping agents.
(§1) In all of the experiments associated with the investigation of Mesna as a redox clamping agent, as a stand-alone anticancer agent as well as a chemosensitizer, the cell culture medium used was Swim's S-77 medium containing 12 uM cystine, instead of conventional levels of this amino acid (i.e., 50 uM). All other components of the medium were maintained at conventional concentrations. […] The ability of cystine to supply cells with cysteine, which then function as a precursor amino acid for glutathione synthesis, is thought to be responsible for the abnormally high basal levels of glutathione in cultured tumor cell lines.

[3] = tested on: metastatic and/or relapsed tumors refractory to conventional therapy; experiment: Clinical study of oral Mesna as single agent in refractory cancer patients; type: in vivo, human
Description: From December 1996 to March 1998 a study was performed on 14 ambulatory patients with metastatic and/or relapsed tumors refractory to conventional therapy. Eligibility criteria included histologically-confirmed advanced cancer, patients age was greater than 18 years, with a life expectancy no less than two months. The patients had not undergone major surgery within 2 weeks, or radiotherapy and/or chemotherapy within one month of the study. […] Exclusion criteria included active uncontrolled infection, pregnancy, lactation and any other co-existing medical problems severe enough to prevent full compliance with the study. Objectively measurable disease in the patients was required. All patients gave informed written consent before treatment. 600 mg/m^2 of Mesna was given by oral route four times a day, masked in orange juice for 10 consecutive days. Cycles were repeated every 15 days. No simultaneous chemotherapy and or radiotherapy and no other supportive care was given. The main objective of the study was to determine the anti-tumoral activity and toxicity of Mesna for heavily and or refractory pretreated cancer patients. […] The patients were all previously treated with between two and four different chemotherapy regimens. Mesna was administered as a single agent to all of the patients in the study. The toxic effects of Mesna and number of nodes were assessed during the first cycle of Mesna administration. […] For colorectal cancer a greater than 50% reduction of nodular lesions metastasized to liver was registered, during the second schedule of therapy. For gastric cancer a greater than 50% reduction of a subcutaneous nodule was measured during the second course of Mesna treatment.

[4] = within a few minutes after administration; cited from earlier work
[5] = even in very high dose, 1000 mg/kg; cited from earlier work
[6] = tested on: human tumor cell lines; experiment: Growth inhibition of human tumor cell lines in culture; type: cell-based
Text: The present invention provides a method of treating lymphoma, ovarian cancer, colorectal cancer, or gastric cancer comprising administering an effective amount of Mesna to a patient with lymphoma, ovarian cancer, colorectal cancer or gastric cancer. Mesna inhibits the growth of several human tumor cell lines in culture, and there are no strict relationships between the histopathological origin of the cell lines and the sensitivity of the cell lines to Mesna. […] It is further preferred that the patient be administered Mesna for a seven to ten day period. The doses may be cycled. The actual dose will be dependent on the size, type and location of the tumor as well as the overall status of the patient. It is preferred that high concentrations of Mesna be administered intravenously to achieve clamping initially, with further administration of oral doses to maintain the clamped state.
Cancer cell lines were growth inhibited when Mesna was administered on several consecutive days. Mesna has shown good activity in preventing the urotoxicity of oxazaphosphorine compound.
as §1

[7] = tested on: human LNCaP cells; experiment: Two-step arsenic then Mesna treatment, apoptosis and glutathione in LNCaP cells; type: cell-based
Description: Human LNCaP cells, treated with 100 uM arsenic for 2 hours then washed and re-fed with normal medium, develop an elevation in cellular glutathione levels over a 24-hour period. Since exogenous antioxidants are known to be potent inhibitors of apoptotic mechanism, it is believed that internally-produced antioxidants such as glutathione function in a similar manner. […] Although Mesna increases apoptosis alone, the low concentrations of Mesna utilized in this two-step treatment protocol increased apoptosis minimally i.e., to 11 percent from a background of 3 to 5 percent in untreated cells.
as §1

[8] = 100 uM arsenic 2 hours, washed, then medium containing 100 uM Mesna

In the case of `CCCC(=O)O` [Butyrate], the “concentration of butyrate that induces apoptosis” value ([1]; butyrate alone) is reported as “greater than 3 mM” and the “concentration of butyrate giving an effective kill” value ([1]; in the presence of a redox clamping agent) is reported as no less than 0.5 mM.
For `O=C(O)[C@@H](S)[C@@H](S)C(=O)O` [DMSA], the “stress-induced upswings in antioxidant levels (glutathione, metallothionein)” value [2] was “oppose stress-induced upswings in antioxidant levels”.
In the case of `O=S(=O)([O-])CCS.[Na+]` [Mesna, Sodium-2-mercaptoethane sulphonate], the “reduction of a subcutaneous nodule, gastric cancer” value ([3]; 600 mg/m^2 oral four times a day, 10 days, second course) is reported as “greater than 50%”, the “reduction of nodular lesions metastasized to liver, colorectal cancer” value ([3]; 600 mg/m^2 oral four times a day, 10 days, second schedule of therapy) is reported as “greater than 50%” and the objective response ([3]; lung cancer, soft tissue sarcoma, skin metastases of unknown origin, bladder cancer, melanoma, cancer of the cervix) is reported as “No objective responses”. For the same compound, the “clinical response, ovarian cancer” value ([3]; two patients, 600 mg/m^2 oral four times a day, 10 days, second and third course) was “reduced ascites and pain”, the “fraction of administered dose transformed into Mesna disulphide” value [4] was “more than 90%” and the “stress-induced upswings in antioxidant levels (glutathione, metallothionein)” value [2] was “oppose stress-induced upswings in antioxidant levels”. The “pharmacological and toxicological character” value [5] was “relatively inert”, the “incorporation of 3H-thymidine, proline and uridine” value [6] was “inhibited” and the “growth of human tumor cell lines in culture” value ([6]; lymphoma, ovarian, colorectal, gastric cancer lines, administered on several consecutive days) was “inhibits growth”. The “elevation in glutathione levels” value [7, 8] was “dramatically diminished”, the “fraction of apoptotic cells compared to arsenic alone” value [7, 8] was “increased more than two-fold” and the apoptosis ([7]; Mesna alone at the low concentration of the two-step protocol, background 3 to 5 percent in untreated cells) was 11%.
For `O=S(=O)([O-])CCSSCCS(=O)(=O)[O-].[Na+].[Na+]` [Dimesna, Disodium-2,2′-dithiobisethane sulfonate], the “interference with the growth inhibitory activity of Mesna” value [6] was “did not interfere”.
For `[AsH3]` [arsenic], the “apoptosis of the cells” value ([7]; 100 uM arsenic for 2 hours, washed, re-fed with normal medium) was 28%.
